This note sets out measurements from patent US7495027B2, “3-aryl-4-hydroxyfuranone compounds and the human and animal health use thereof” (Wyeth, priority 2003, dated 2009).

SMILES strings stand for the structures.

The test system of one experiment is C. elegans. The experiment can be described thus: Efficacy against nematodes (C. elegans motility rating). Also on record: key: 0: no effect; 7: reduced movement in 24 h; 8: dead in 24 h; 9: dead in 4 h. As to conditions: dose 200 μM, observations at 4 h and 24 h postimmersion. The method, then: Evaluation of the Efficacy of a 3-Aryl-4-Hydroxyfuranone Against Nematodes
In this evaluation, cultures of C. elegans are maintained on E. coli lawns on Nematode Growth Agar at 20° C. New cultures are established twice a week. Nematodes for testing are rinsed from plates using M9 Buffer. […] One μL of this solution is added to each well of a 96 well plate. A mixture of C. elegans in M9 Buffer (100 μL) is added to each well, such that approximately 50 worms of mixed stages (L1, L2, L3, L4 and adults) are present in each well at a final concentration of 100 ppm, 150 ppm or […] of test compound. Concentration of test compound may be varied by gradient dilution of the stock DMSO solution. Observations are made under a dissecting microscope at 4 h and 24 h postimmersion. A rating is based on the motility of the larvae and adults, using the rating system shown below.
In the case of `O=C1O/C(=C\c2cc(C(F)(F)F)ccc2F)C(O)=C1c1cccc(-c2ccccc2)c1` [R=H; R1=3-biphenyl; R2=2-F-5-CF3—C6H3], the Rating is given as 9.

Staying with this experiment, now noted: dose 100 ppm, observations at 4 h and 24 h postimmersion.
In turn, `O=C1OC(=Cc2ccc(OCC3CC3)cc2)C(O)=C1c1ccc(Cl)cc1` (mixture of isomers) registered a Rating of 7.

The compound `Cc1c(C=C2OC(=O)C(c3ccc(OC(F)(F)F)cc3)=C2O)cnn1-c1ccc(F)cc1` (mixture of isomers) came in with a Rating of 0. `COc1ccc(-n2ncc(C=C3OC(=O)C(c4ccc(OC(F)(F)F)cc4)=C3O)c2C)cc1` (mixture of isomers) displayed a Rating of 0.

The compound `Cc1c(C=C2OC(=O)C(c3ccc(OC(F)(F)F)cc3)=C2O)cnn1-c1ccccc1` (mixture of isomers) returned a Rating of 0. The same measure, in the same setting: the figure for `O=C1OC(=Cc2cccnc2Cl)C(O)=C1c1ccc(OC(F)(F)F)cc1` (mixture of isomers) is 9. Regarding `O=C1OC(=Cc2c[nH]c(-c3ccccc3)n2)C(O)=C1c1ccc(OC(F)(F)F)cc1` (mixture of isomers), the Rating was 0. Take `Cc1cc(C=C2OC(=O)C(c3ccc(OC(F)(F)F)cc3)=C2O)n(C)n1` (mixture of isomers): the Rating is listed as 0.

`O=C1OC(=Cc2ccc(-n3cncn3)cc2)C(O)=C1c1ccc(OC(F)(F)F)cc1` (mixture of isomers) had a Rating of 9. Same read-out and setting: the value for `CN1CCN(c2ccc(C=C3OC(=O)C(c4ccc(OC(F)(F)F)cc4)=C3O)cc2)CC1` (mixture of isomers) was 0; that for `N#Cc1ccc(-c2ccc(C=C3OC(=O)C(c4ccc(OC(F)(F)F)cc4)=C3O)cc2)cc1` (mixture of isomers) was 9.

Regarding `O=C1OC(=Cc2ccc(-c3ccc(Cl)cc3)cc2)C(O)=C1c1ccc(OC(F)(F)F)cc1` (mixture of isomers), the Rating worked out at 9. `O=C1OC(=Cc2ccc(-n3cccc3)cc2)C(O)=C1c1ccc(OC(F)(F)F)cc1` (mixture of isomers): the Rating is 9. For `O=C1OC(=Cc2ccc(-c3cccs3)cc2)C(O)=C1c1ccc(OC(F)(F)F)cc1` (mixture of isomers), the Rating worked out at 9. For `Cn1cc(Cl)c(C=C2OC(=O)C(c3ccc(OC(F)(F)F)cc3)=C2O)n1` (mixture of isomers), the Rating was found to be 0. On to `O=C1OC(=Cc2ccc(-c3ccc(F)c(C(F)(F)F)c3)o2)C(O)=C1c1ccc(OC(F)(F)F)cc1` (mixture of isomers), for which the Rating came out at 9. On the same count and under the same terms, the figure for `O=C1OC(=Cc2ccc(N3CCOCC3)nc2)C(O)=C1c1ccc(OC(F)(F)F)cc1` (mixture of isomers) is 0; for `O=C1OC(=Cc2ccc(-c3ccccn3)s2)C(O)=C1c1ccc(OC(F)(F)F)cc1` (mixture of isomers) it is 9. Still for that read-out and setting: the figure for `O=C1OC(=Cc2ccc(Br)o2)C(O)=C1c1ccc(OC(F)(F)F)cc1` (mixture of isomers) is 9.

`Cc1nn(C)c(Cl)c1C=C1OC(=O)C(c2ccc(OC(F)(F)F)cc2)=C1O` (mixture of isomers): the Rating is 0. The same measure, in the same setting: the value for `Cc1ccccc1-n1ncc(C=C2OC(=O)C(c3ccc(OC(F)(F)F)cc3)=C2O)c1C` (mixture of isomers) was 0; that for `O=C1OC(=Cc2ccc(Oc3ccccc3)nc2)C(O)=C1c1ccc(OC(F)(F)F)cc1` (mixture of isomers) was 9; that for `O=C1OC(=Cc2ccc(C(F)(F)F)cc2)C(O)=C1c1ccc(C(F)(F)F)cc1` (mixture of isomers) [R=H; R1=4-CF3—C6H4**; R2=4-CF3—C6H4] was 9.

Compound `N#Cc1ccc(C=C2OC(=O)C(c3ccc(C(F)(F)F)cc3)=C2O)cc1` (mixture of isomers) [R=H; R1=4-CF3—C6H4**; R2=4-CN—C6H4] displayed a Rating of 9.

`O=C1OC(=Cc2ccc(Cl)cc2)C(O)=C1c1ccc(C(F)(F)F)cc1` (mixture of isomers) [R=H; R1=4-CF3—C6H4**; R2=4-Cl—C6H4] registered a Rating of 9. Same read-out and setting: the figure for `N#Cc1ccc(C2=C(O)C(=Cc3ccc(Cl)cc3Cl)OC2=O)cc1` (mixture of isomers) [R=H; R1=4-CN—C6H4**; R2=2,4-diCl—C6H4] is 9; for `N#Cc1ccc(C2=C(O)C(=Cc3ccc(Cl)c(Cl)c3)OC2=O)cc1` (mixture of isomers) [R=H; R1=4-CN—C6H4**; R2=3,4-diCl—C6H4] it is 9. In turn, `N#Cc1ccc(C2=C(O)C(=Cc3ccc(C(F)(F)F)cc3)OC2=O)cc1` (mixture of isomers) [R=H; R1=4-CN—C6H4**; R2=4-CF3-C6H4] registered a Rating of 9. Same read-out and setting: the value for `O=C1OC(=Cc2ccccc2C(F)(F)F)C(O)=C1c1ccc(Cl)cc1` (mixture of isomers) [R=H; R1=4-Cl—C6H4**; R2=2-CF3—C6H4] was 9; that for `O=C1OC(=Cc2ccc(C(F)(F)F)c(F)c2)C(O)=C1c1ccc(Cl)cc1` (mixture of isomers) [R=H; R1=4-Cl—C6H4**; R2=3-F-4-CF3—C6H4] was 9.

`O=C1OC(=Cc2ccc(C(F)(F)F)cc2)C(O)=C1c1ccc(Cl)cc1` (mixture of isomers) [R=H; R1=4-Cl—C6H4**; R2=4-CF3—C6H4] registered a Rating of 9. Regarding `O=C1OC(=Cc2ccc(SC(F)(F)F)cc2)C(O)=C1c1ccc(Cl)cc1` (mixture of isomers) [R=H; R1=4-Cl—C6H4**; R2=4-SCF3—C6H4], the Rating is given as 9. The compound `O=C1OC(=Cc2ccc(C(F)(F)F)cc2F)C(O)=C1c1ccc(OC(F)(F)F)cc1` (mixture of isomers) [R=H; R1=4-OCF3—C6H4**; R2=2-F-4-CF3—C6H3] returned a Rating of 9. Compound `O=C1OC(=Cc2cc(F)cc(C(F)(F)F)c2)C(O)=C1c1ccc(OC(F)(F)F)cc1` (mixture of isomers) [R=H; R1=4-OCF3—C6H4**; R2=3-F-5-CF3—C6H3] displayed a Rating of 9. The compound `O=C1OC(=Cc2ccncc2)C(O)=C1c1ccc(OC(F)(F)F)cc1` (mixture of isomers) [R=H; R1=4-OCF3—C6H4**; R2=pyridine-4-yl] displayed a Rating of 0.

Still in this experiment, the particulars now being: dose 150 ppm, observations at 4 h and 24 h postimmersion.
The compound `O=C1OC(=Cc2cccc(Cl)c2)C(O)=C1c1ccc(Cl)cc1` (mixture of isomers) [R=H; R1=4-Cl—C6H4**; R2=3-Cl—C6H4] had a Rating of 9. The same measure, in the same setting: the value for `N#Cc1ccc(C=C2OC(=O)C(c3ccc(Cl)cc3)=C2O)cc1` (mixture of isomers) [R=H; R1=4-Cl—C6H4**; R2=4-CN—C6H4] was 9. `COC1=C(c2cccc(C(F)(F)F)c2)C(=O)O/C1=C\c1cccc(C(F)(F)F)c1` [R=CH3; R1=3-CF3—C6H4; R2=3-CF3—C6H4] had a Rating of 0. `COC1=C(c2cccc(C(F)(F)F)c2)C(=O)O/C1=C\c1ccccc1` [R=CH3; R1=3-CF3—C6H4; R2=C6H5] registered a Rating of 0.

In turn, `COC1=C(c2ccc(Cl)cc2)C(=O)O/C1=C\c1ccccc1` [R=CH3; R1=4-Cl—C6H4; R2=C6H5] returned a Rating of 0.

`COC1=C(c2ccc(OC)cc2)C(=O)O/C1=C\c1cccc(C(F)(F)F)c1` [R=CH3; R1=4-OCH3—C6H4; R2=3-CF3—C6H4] had a Rating of 0. `COC1=C(c2ccc(OC)cc2)C(=O)O/C1=C\c1ccccc1` [R=CH3; R1=4-OCH3—C6H4; R2=C6H5]: the Rating is 0. Compound `COC1=C(c2ccccc2)C(=O)O/C1=C\c1cccc(C(F)(F)F)c1` [R=CH3; R1=C6H5; R2=3-CF3—C6H4] yielded a Rating of 0. On the same count and under the same terms, the figure for `O=C1O/C(=C\c2cccc3ccccc23)C(O)=C1c1cccc2ccccc12` [R=H; R1=1-naphthyl; R2=1-naphthyl] is 0.

`O=C1O/C(=C\c2cccc(C(F)(F)F)c2)C(O)=C1c1cccc2ccccc12` [R=H; R1=1-naphthyl; R2=3-CF3—C6H4] yielded a Rating of 0. Same read-out and setting: the figure for `O=C1O/C(=C\c2ccc(Cl)cc2)C(O)=C1c1cccc2ccccc12` [R=H; R1=1-naphthyl; R2=4-Cl—C6H4] is 0; for `O=C1O/C(=C\c2ccc(-c3ccccc3F)cc2)C(O)=C1c1ccccc1F` [R=H; R1=2-F—C6H4; R2=4-(2′-F-biphenyl)] it is 8; for `O=C1O/C(=C\c2cccc(C(F)(F)F)c2)C(O)=C1c1ccc2ccccc2c1` [R=H; R1=2-naphthyl; R2=3-CF3—C6H4] it is 9. In turn, `O=C1O/C(=C\c2cccc3ccccc23)C(O)=C1c1cccc(C=NO)c1` [R=H; R1=3-(C═NOH)—C6H4; R2=1-naphthyl] registered a Rating of 0. As to `O=C1O/C(=C\c2ccccc2)C(O)=C1c1cccc(C(F)(F)F)c1` [R=H; R1=3-CF3—C6H4; R2=C6H5], the Rating is reported as 8. On the same count and under the same terms, the value for `O=C1OC(=Cc2cccc3ccccc23)C(O)=C1c1cccc(CO)c1` [R=H; R1=3-CH2OH—C6H4; R2=1-naphthyl] was 0. In turn, `O=Cc1cccc(C2=C(O)/C(=C/c3cccc4ccccc34)OC2=O)c1` [R=H; R1=3-CHO—C6H4; R2=1-naphthyl] showed a Rating of 0. Still for that read-out and setting: the value for `N#Cc1cccc(C2=C(O)/C(=C/c3ccc(-c4cccc(C#N)c4)cc3)OC2=O)c1` [R=H; R1=3-CN—C6H4; R2=4-(3′-CN-biphenyl)] was 0; that for `O=C1O/C(=C\c2ccccc2-c2cccc(Cl)c2)C(O)=C1c1cccc(Cl)c1` [R=H; R1=3-Cl—C6H4; R2=2-(3′-Cl-biphenyl)] was 0; that for `O=C1O/C(=C\c2cccc(C(F)(F)F)c2)C(O)=C1c1cccc(-c2ccccc2)c1` [R=H; R1=3-biphenyl; R2=3-CF3—C6H4] was 0.
